Measurements taken from patent publication US7312358B2, “Pharmaceutically active sulfanilide derivatives” (Laboratoires Serono SA, priority 2000, dated 2007).

Experiments:
hOT-R = target: T1, hOT-R (Homo sapiens, UniProt P30559); experiment: Inhibition of oxytocin mediated Ca2+-mobilization by FLIPR (HEK cells); type: cell-based; conditions: fluo-4, OT 40 nM
T1 construct: expressed in transfected cells; host or cells: HEK (Human Embryonic Kidney) cells
T1 sequence (P30559 1-389): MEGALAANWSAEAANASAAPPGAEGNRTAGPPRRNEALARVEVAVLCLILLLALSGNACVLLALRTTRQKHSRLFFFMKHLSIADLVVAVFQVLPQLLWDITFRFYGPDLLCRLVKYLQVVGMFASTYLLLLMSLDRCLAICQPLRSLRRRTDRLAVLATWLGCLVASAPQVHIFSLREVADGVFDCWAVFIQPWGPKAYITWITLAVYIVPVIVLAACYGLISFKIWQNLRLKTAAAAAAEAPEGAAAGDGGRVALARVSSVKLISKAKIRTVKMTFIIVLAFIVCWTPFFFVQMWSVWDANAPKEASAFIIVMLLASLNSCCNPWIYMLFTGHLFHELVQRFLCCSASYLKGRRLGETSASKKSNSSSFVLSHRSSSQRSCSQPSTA
In short: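 HEK cells loaded with fluo-4 for 1.5–2 h; antagonist added at 10 pM–30 μM in HEPES-buffered saline, pH 7.4, then stimulated with 40 nM oxytocin. Intracellular Ca2+ mobilization read as fluorescence on FLIPR.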

ratOT-R = target: T2, ratOT-R (Rattus norvegicus, UniProt P70536); experiment: Inhibition of IP3 (inositol tri-phosphate)-synthesis in HEK/EBNA-OTR cells; type: cell-based; conditions: [3H]-inositol, oxytocin 10 nM
T2 construct: expressed in transfected cells; host or cells: HEK/EBNA cells
T2 sequence (P70536 1-388): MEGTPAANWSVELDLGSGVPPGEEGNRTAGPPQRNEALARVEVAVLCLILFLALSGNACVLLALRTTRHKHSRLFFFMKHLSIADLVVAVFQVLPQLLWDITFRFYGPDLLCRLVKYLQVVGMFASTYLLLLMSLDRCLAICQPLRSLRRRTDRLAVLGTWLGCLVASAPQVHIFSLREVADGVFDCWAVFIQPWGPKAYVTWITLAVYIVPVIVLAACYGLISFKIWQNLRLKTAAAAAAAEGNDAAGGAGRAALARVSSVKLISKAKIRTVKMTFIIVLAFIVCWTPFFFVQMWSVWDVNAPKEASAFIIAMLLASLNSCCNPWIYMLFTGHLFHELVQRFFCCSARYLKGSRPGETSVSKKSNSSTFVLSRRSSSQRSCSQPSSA
Protocol: e) Functional Assay No. 2: Inhibition of IP3 (Inositol Tri-Phosphate)-Synthesis in HEK/EBNA-OTR Cells
This assay intends to show the inhibition of the OT/OT-R mediated IP3 synthesis—being necessary to cause uterine contractions—by using test compounds of formula (I).
Stimulation of the cells: IIEK/EBNA OTR(rat or human) cells were plated out into costar 12-well plates, and equilibrated for 15-24 h with [^3H]-inositol radiolabel in medium without inositol supplement, with 1% FCS (0.5 ml/well). 4 μCi/ml were used. After this, the medium containing the label was aspirated. Then was added DMEM (without FCS, inositol), 20 mM Hepes (4-(2-hydroxyethyl)-1-piperazine-ethane-sulphonic acid), 1 mg/ml BSA containing 10 mM LiCl (freshly prepared), for […] at 37° C. The agonist (i.e. oxytocin used at a concentration of 10 nM) and the antagonists (i.e. the tests compounds of formula (1) used in a concentration of 10 μM, 1 μM, 300 nM, 100 nM, 10 nM, 1 nM, 100 pM, 10 pM, 3 pM) were added for the time required (15-45 min), followed by aspiration of the medium. Due to the […] of the OT receptor, the radiolabeled inositol is phosphorylated to yield IP3, the amount of the radiolabeled IP3 may be determined through the ensuing work-up. The reaction was stopped with 1 ml STOP-solution (i.e. 0.4 M perchloric acid), and let sit for 5-10 min at Room Temperature. Then, 0.8 ml were transferred into tubes containing 0.4 ml of neutralizing solution (0.72 M KOH/0.6M KHCO3), and the tubes vortexed and kept in the cold at least for 2 h.
Separation of IP's: The samples were spun in a table top centrifuge at 3000-4000 rpm for 15 min. 1 ml of the supernatant was transferred to new tubes containing 2.5 ml H2O. Packed resin (0.8 ml) was equilibrated with 20 ml H2O, and the whole samples poured onto the chromatography columns, thus separating the mixture. To discard free inositol, two washes with 10 ml H2O were carried out.
Elution of total IP's: The elution was achieved using 3 ml 1M ammonium formate/0.1M formic acid. The eluant was collected in scintillation counting tubes, followed by addition of 7 ml of scintillation liquid. The amount of IP3 is determined by a scintillating counter.
The activities of the sulfanilide derivatives claimed in the formula I were assessed using the above described in vitro biological assay. The values refer to the capacity of the example compounds according to formula I to effectively antagonize oxytocin-induced IP3-synthesis mediated by the oxytocin receptor.

CCOc1ccc(S(=O)(=O)N(CC(=O)N/N=C2/C(=O)Nc3ccccc32)c2ccc(C)cc2)cc1 [Example 5, 4-ethoxy-N-(4-methylphenyl)-N-{2-oxo-2-[2-(2-oxo-1,2-dihydro-3H-indol-3-ylidene)hydrazino]ethyl}benzenesulfonamide]
IC50 (hOT-R): 0.055 µM | IC50 (ratOT-R): 0.013 µM
